Measured values: patent publication US5591763A, “treatments for diseases characterized by neovascularization” (President and Fellows of Harvard College, priority 1995, dated 1997)
Entries after “also recorded” stand apart in the source; their conditions may differ. Like-named read-outs stand apart in the source and are kept apart here.

Assays:
endothelial cells = test: Proliferation of endothelial cells (general statement); type: cell-based
[1] = system: vascular smooth muscle cells; test: Proliferation/growth of vascular smooth muscle cells (general statement); type: cell-based
[2] = molecular target: T1, Ca^++ activated K channel of human erythrocytes (Homo sapiens, UniProt O15554); test: Inhibition of Ca++ activated K channel of human erythrocytes, 86Rb influx; type: biochemical; conditions: for Order of inhibitory potency, Ca++ activated 86Rb influx / Inhibition of Ca++ activated 86Rb influx by other antimycotics: human erythrocytes; for Inhibition of Ca++ activated 86Rb influx by other antimycotics: FIG. 4
T1 construct: Preparation of Human Red Blood Cells: Blood is collected in heparinized tubes; endogenous in cells; host or cells: washed human erythrocytes (red blood cells from heparinized blood)
Experimental: (§1) Preparation of Human Red Blood Cells: Blood is collected in heparinized tubes and centrifuged in a Sorvall centrifuge (RB 5B, Du Pont Instruments,Newtown, Conn.) at 5° C. for 10 minutes at 3000 g. Plasma and buffy coat are carefully removed and the cells washed four times with a washing solution containing 150 mM choline chloride (Sigma Co), 1 mM MgCl2 (Sigma Co),10mM Tris-MOPS (Sigma, Calif.), pH 7.4 at 4° C.(CWS). An aliquot of cells is then suspended in an approximately equal volume of CWS, and from this original cell suspension hematocrit (Hct) and hemoglobin (optical density at 540 nm) are determined.
Methods to Test Inhibitors of the Ca^++ Activated K channel: To test inhibitors of the Ca^++ activated K channel, the channel is activated using the calcium ionophore A23187 (Calbiochem).
By radioisotopic measurement of ^86 Rb influx. The incubation medium is the same but contains 2 mM KCl and 1 μCi/ml of the radioactive tracer ^86 Rb. After spinning the samples through the phthalate layer, the tubes are rapidly frozen (-80° C.) by immersion in methanol-dry ice, the tips of the tubes containing the packed red cells cut, and counted in a Packard Gamma Counter.
(§2) The inhibitory effect of (CLT) on the Ca^++ activated K channel of human erythrocytes was assessed in the presence of 60 μmol A23187/L cell and 100 μMCaCl2.
Other antimycotics were tested for their inhibition of the Ca++ activated 86Rb influx human erythrocytes.

Swiss 3T3 cells = test: Proliferative response to mitogens released from MAC-treated endothelial cells, 3T3 cells; type: cell-based; conditions: 10 μM CLT; quiescent 3T3 cells; conditioned media from MAC treated EC; FIG. 5
Experimental: (§3) CLT inhibits the mitogenic activity released from endothelial cells by activated component. When endothelial cells (EC) in culture (both BAEC and HUVEC) are treated with terminal complement components to form the MAC (membrane attack complex of complement), they release into the culture medium a potent mitogenic activity that stimulates the proliferation of quiescent cells used as indicators of the mitogens. Both, quiescent Swiss 3T3 and vascular smooth muscle cells are stimulated by the mitogens released form EC in response to the MAC (FIG. 5; Halperin et al. unpublished observation). Moreover, immunoprecipitation with specific antibodies has documented that both PDGF and bFGF released from the EC contribute in approximately equal proportion to the mitogenic activity induced by the MAC (data not shown).
(§4) To determine whether CLT inhibited the cell proliferative activity released by the MAC from EC, quiescent 3T3 and vascular smooth muscle cells were stimulated in the presence and absence of 10 μM CLT with conditioned media obtained from MAC treated EC.

[3] = molecular target: T1, Ca^++ activated K channel of human erythrocytes; test: Inhibition of Ca++ activated K channel of human erythrocytes, K efflux; type: biochemical; conditions: 60 μmol A23187/L cell, 100 μM CaCl2
Excerpt: Ca^++ -sensitive K+ channels have wide distribution among cells, including the human red cell where they were originally discovered and which is the most commonly utilized assay system for activators and inhibitors of the channel for the following reasons: they are readily available, can be easily manipulated in the laboratory, and transport assays can be accurately standardized by reading the hemoglobin concentration of a red cell suspension.
as §1, with “determined. […]” for “determined.”
as §2

[4] = system: bovine endothelial (BAEC); test: Cell growth (surface of culture flask covered by cell monolayer), bovine endothelial cells; type: cell-based; conditions: 10 μM, 48 hs, without CLT 90±2%
Experimental: (§5) Measurement of cell density in culture plates: Cells of a specific test cell line are seeded at precisely the same low density in culture plates and incubated for approximately 12 hours in DME 10% serum, or other culture medium depending on the cell line tested. […] Alternatively, the cells can be detached from the plate by incubation with trypsin (Sigma, Co.) […] in ethylene diaminotetraacetic acid (ECTA; Sigma, Co); then the cells are counted in an hemocytometer chamber (Fisher, Pittsburgh, Pa.).
(§6) Bovine endothelial (BAEC) and human umbilical vein (HUVEC): Cells were seeded at a low density (2.5×10^5) in cell culture flasks (75 ml flasks) containing DME 10% calf serum (BAEC) or fetal calf serum (HUVEC); after 12 hs, when the cells were attached to the surface of the flasks, CLT (10 μM) or carrier (ethanol) were added to triplicate flasks. After 48 hs cell growth was assessed by optic miscroscopy calculating the surface of the culture flask covered by the cell monolayer.

[5] = system: human umbilical vein (HUVEC); test: Cell growth (surface of culture flask covered by cell monolayer), human umbilical vein cells; type: cell-based; conditions: 10 μM, 48 hs, without CLT 90±2%
Experimental: as §5, §6

[6] = system: vascular smooth muscle cells; test: Proliferative response to mitogens released from MAC-treated endothelial cells, vascular smooth muscle cells; type: cell-based; conditions: 10 μM CLT; quiescent vascular smooth muscle cells; conditioned media from MAC treated EC; FIG. 5
Experimental: as §3, §4

[7] = system: rat vascular smooth muscle cells; test: cells; type: cell-based
Experimental: DNA synthesis assessed by the uptake of [3H]thymidine: Cells are grown in either 48 or 96 wells plates (Costar, Cambridge, Mass.) at 104 and 0.8 10^3 cells per well, respectively, and grown in Dubelcco's modified Eagle's medium (DME, Gibco, Grand Island, N.Y.) supplemented with 10% heat-inactivated calf serum; they are kept at 37° C. in 5% CO2. When they reach confluence, usually between 3 and 4 days, the medium is replaced with DME 0.5% serum to make them quiescent, and mitogenesis assays are performed 24 hours later.
Quiescent cells are exposed to a mitogenic stimulus, such as 10% serum, PDGF (Sigma Co. St. Louis, Mo.), bFGF (Upstate Biotechnologies, Lake Placid, N.Y.), or other appropriate mitogen according to the cell line, and 3 hours later 1 μCi/ml of [3H]thymidine (Dupont, Billerica, Mass. ) is added to the wells, and the cells maintained at 37° C./5% CO2 for additional 21 hours. Then the cells are washed 3 times with DME medium and the acid-precipitable radioactivity is extracted with cold 10% TCA (Sigma, Co). After neutralization with 0.3 N NaOH (Sigma Co.), aliquots are counted in a Packard Tri-Carb Scintillation counter (Packard Instrument, Downer's Grove, Ill.).
Rat vascular smooth muscle cells (murine cell line): Quiescent cells were stimulated with purified growth factors (PDGF and bFGF, […]) and synthesis of DNA was assessed by the incorporation of [3H]thymidine measured 24 hours later.
Cells were stimulated using […] bFGF. […] (FIG. 2)
Other antimycotics were tested for their inhibition of bFGF-stimulated DNA synthesis in rat vascular smooth muscle cells.

17-hydroxylase = conditions: cited from earlier work
[8] = system: 21- and/or 11-hydroxylase; conditions: cited from earlier work
epidermal cells = test: Growth of epidermal cells (general statement); type: cell-based
17-20 desmolase = conditions: cited from earlier work
[9] = hormonal adjuvant for prostate cancer; cited from earlier work

In the case of `N=C(N)NC(=O)c1nc(Cl)c(N)nc1N` [amiloride], the “Inhibition of proliferation of endothelial cells” value (shortened to “Inhibition … of endothelial cells”) (endothelial cells) is reported as “do not inhibit cell proliferation” and the “Inhibition of proliferation/growth of vascular smooth muscle cells” value [1] is reported as “do not inhibit cell proliferation”.

For `Clc1ccccc1C(c1ccccc1)(c1ccccc1)n1ccnc1` [clotrimazole], the “Inhibition of Ca^++ activated 86Rb influx” value ([2]; 60 μmol A23187/L cell, 100 μM CaCl2) was “markedly inhibited”, the “Order of inhibitory potency, Ca++ activated 86Rb influx” value [2] was “clotrimazole more than miconazole” and the “Inhibition of proliferative response to mitogens released from EC” value (Swiss 3T3 cells) was “completely inhibited”. The “Inhibition of Ca^++ activated K efflux” value [3] was “markedly inhibited”, the “Flask surface covered by cells in the presence of CLT” value [4] was “less than 10%” and the “Flask surface covered by cells in the presence of CLT” value [5] was “less than 10%”. For the same compound, the “Inhibition of proliferative response to mitogens released from EC” value [6] was “completely inhibited”, the “Dose response of inhibition of DNA synthesis” value [7] was “dose dependent” and the “Inhibition of DNA synthesis” value [7] was “complete inhibition”. The “Inhibition of PDGF stimulated DNA synthesis” value [7] was “completely inhibited”, the “Inhibition of bFGF stimulated DNA synthesis” value [7] was “completely inhibited” and the “Inhibition of bFGF-stimulated DNA synthesis” value [7] was “inhibited DNA synthesis”. The “Order of inhibitory potency, bFGF-stimulated DNA synthesis” value [7] was “CLT more potent than ECZ”, the “Reversibility of the inhibition of DNA synthesis” value [7] was “reversed by removing CLT” and the inhibition at 1 µM ([7]; Rattus norvegicus, read-out: Inhibition of DNA synthesis) was 45%.

For `Clc1ccc(COC(Cn2ccnc2)c2ccc(Cl)cc2Cl)cc1` (stereo not drawn) [econazole], the “Order of inhibitory potency, Ca++ activated 86Rb influx” value [2] was “both of these were more than econazole”, the “Order of inhibitory potency, bFGF-stimulated DNA synthesis” value ([7]; 10 μM, FIG. 3) was “ECZ more potent than MCZ” and the “Inhibition of bFGF-stimulated DNA synthesis” value ([7]; antimycotics at 10 μM, FIG. 3) was “inhibited DNA synthesis”.

In the case of `OC(Cn1cncn1)(Cn1cncn1)c1ccc(F)cc1F` [fluconazole], the “Inhibition of Ca++ activated 86Rb influx by other antimycotics” value (“Inhibition of Ca++ activated 86Rb influx” for short) [2] is reported as “no inhibition”.

In the case of `CC(=O)N1CCN(c2ccc(OCC3COC(Cn4ccnc4)(c4ccc(Cl)cc4Cl)O3)cc2)CC1` (stereo not drawn) [ketoconazole], the “Blockade of 17-hydroxylase” value (17-hydroxylase) is given as “partial blockade”, the “Inhibition … of endothelial cells” value (endothelial cells) is given as “not useful for inhibiting” and the “Inhibition of 21- and/or 11-hydroxylase” value [8] is given as “marked inhibition”. The “Inhibition of proliferation/growth of vascular smooth muscle cells” value [1] was “not useful for inhibiting; also recorded: ineffective”, the “Inhibition of growth of epidermal cells” value (epidermal cells) was “ineffective” and the “Inhibition of 17-20 desmolase” value (17-20 desmolase) was “inhibition”. The Plasma testosterone reduction [9] was “reduces plasma testosterone to castration levels”.

With `Cc1ncc([N+](=O)[O-])n1CCO` [metronidazole] the “Inhibition of Ca++ activated 86Rb influx” value [2] was “only marginal”.

For `Clc1ccc(COC(Cn2ccnc2)c2ccc(Cl)cc2Cl)c(Cl)c1` (stereo not drawn) [miconazole], the “Order of inhibitory potency, Ca++ activated 86Rb influx” value [2] was “both of these were more than econazole”, the “Order of inhibitory potency, bFGF-stimulated DNA synthesis” value ([7]; 10 μM, FIG. 3) was “ECZ more potent than MCZ” and the “Inhibition of bFGF-stimulated DNA synthesis” value ([7]; antimycotics at 10 μM, FIG. 3) was “inhibited DNA synthesis”.

For `Cc1ncc([N+](=O)[O-])n1CC(O)CCl` (stereo not drawn) [ornidazole], the “Inhibition of Ca++ activated 86Rb influx” value [2] was “no inhibition”.

In the case of `C[C@@H]1O[C@@H](O[C@H]2C[C@@H](O)[C@]3(CO)[C@H]4[C@H](O)C[C@]5(C)[C@@H](C6=CC(=O)OC6)CC[C@]5(O)[C@@H]4CC[C@]3(O)C2)[C@H](O)[C@H](O)[C@H]1O` [ouabain], the “Inhibition … of endothelial cells” value (endothelial cells) is reported as “do not inhibit cell proliferation” and the “Inhibition of proliferation/growth of vascular smooth muscle cells” value [1] is reported as “do not inhibit cell proliferation”.

With `CCS(=O)(=O)CCn1c([N+](=O)[O-])cnc1C` [tinidazole] the “Inhibition of Ca++ activated 86Rb influx” value [2] was “no inhibition”.

In the case of charybdotoxin, the “Inhibition … of endothelial cells” value (endothelial cells) is reported as “do not inhibit proliferation”, the “Inhibition of proliferation/growth of vascular smooth muscle cells” value [1] is reported as “do not inhibit proliferation” and the “Inhibition of DNA synthesis by other inhibitors of the Ca^++ activated K channel” value (from here on “Inhibition … of the Ca^++ activated K channel”) ([7]; FIG. 3) is reported as “failed to inhibit DNA synthesis”.

In the case of “iberiotoxin (QFTDVDCSVSKECWSVCKDLFGVDRGKCMGKKCRCYQ; UniProt P24663 1-37, looked up)”, the “Inhibition … of endothelial cells” value (endothelial cells) is reported as “do not inhibit proliferation”, the “Inhibition of proliferation/growth of vascular smooth muscle cells” value [1] is reported as “do not inhibit proliferation” and the “Inhibition … of the Ca^++ activated K channel” value ([7]; FIG. 3) is reported as “failed to inhibit DNA synthesis”.

For “kaliotoxin: specific inhibitor of the Ca^++ activated potassium channel”, the “Inhibition … of endothelial cells” value (endothelial cells) was “do not inhibit proliferation”, the “Inhibition of proliferation/growth of vascular smooth muscle cells” value [1] was “do not inhibit proliferation” and the “Inhibition … of the Ca^++ activated K channel” value ([7]; FIG. 3) was “failed to inhibit DNA synthesis”.
